Data reported in US20250127825A1, “PROBIOTIC COMPOSITIONS AND METHODS OF USE THEREOF FOR WEIGHT LOSS” (priority 2023, published 2025).

System: C. elegans worms
Assay: Nile Red lipid staining of worm intestine after 48 hours on experimental diet, non-obesogenic setting
Format: in vivo
Details: for Normalized Nile Red fluorescence, Mean / Normalized Nile Red fluorescence, Median: divided by mean fluorescence of standard diet; for Mean Diff. of fluorescence, Standard E. coli Diet vs. Orlistat / Mean Diff. of fluorescence, Orlistat vs. UF1 100 mg/ml / Mean Diff. of fluorescence, Orlistat vs. UF1 OD7 / Mean Diff. of fluorescence, Standard E. coli Diet vs. UF1 100 mg/ml / Mean Diff. of fluorescence, Standard E. coli Diet vs. UF1 OD7: Holm-Šidák's multiple comparisons test; for Nile Red fluorescence intensity, Mean / Nile Red fluorescence intensity, Median: 48 hours, non-obesogenic; for reduced fat levels compared to the Orlistat control / reduced fat levels compared to the standard E. coli OP50 control diet: reduction
Protocol: In this example the weight loss potential of the UF1 probiotic strain was studied. The UF1 probiotic strain was tested in a non-obesogenic setting by measuring the amount of internal fat in UF1-treated worms compared to no treatment controls. Orlistat treatment was also included as a positive control for fat reduction.
Methodology—Worms were raised to the L4 larval stage using standard plate culture methods. The L4 larvae were then loaded into a microfluidic chip and fed a diet of live E. coli OP50 (20 mg/ml) in liquid nematode growth media (NGM). After 24 hours on the chip, the media for each experimental cohort was switched to the experimental diet. The animals were maintained on each experimental diet for 48 hours before being fixed and stained with Nile Red—a fluorescent dye that binds lipids. A fluorescent microscopy system was then used to image the brightness of the lipid staining in the intestine of the worms, which correlates to the levels of fat in each animal.
Nile Red gives off fluorescence when illuminated with green light. The brightness of the intestinal saining in each worm per trial was quantified. This allows the measurement of the natural variability in fat levels across individuals. ANOVA was then used to determine if the distributions across treatment conditions were statistically different to one another.
All datasets were combined by normalizing the data in each trial by dividing it by the mean fluorescence value of the standard diet. In the combined data, the UF1 diets reduced fat levels compared to the standard E. coli OP50 control diet by approximately 47% and 46%, respectively. The subjects also had reduced fat levels compared to the Orlistat control by approximately 38% and 37%, respectively.

[1] = All trials combined, Orlistat 6 μg/ml
[2] = Trial 1, live OP50 20 mg/ml + Orlistat 6 μg/ml
[3] = Trial 2, live OP50 20 mg/ml + Orlistat 6 μg/ml
[4] = Trial 3, live OP50 20 mg/ml + Orlistat 6 μg/ml
[5] = All trials combined, UF1 100 mg/ml diet
[6] = All trials combined, UF1 OD7 diet
[7] = All trials combined, normalized, UF1 100 mg/ml diet
[8] = All trials combined, normalized, UF1 OD7 diet
[9] = All trials combined, Holm-Šídák's multiple comparisons test
[10] = Combined data, UF1 100 mg/ml diet
[11] = Trial 1, UF1 100 mg/ml diet, mean fluorescence
[12] = Trial 1, UF1 OD7 diet, mean fluorescence
[13] = Trial 2, UF1 100 mg/ml diet, mean fluorescence
[14] = Trial 2, UF1 OD7 diet, mean fluorescence
[15] = Trial 3, UF1 100 mg/ml diet, mean fluorescence

## CCCCCCCCCCC[C@@H](C[C@@H]1OC(=O)[C@H]1CCCCCC)OC(=O)[C@H](CC(C)C)NC=O [Orlistat, reference compound]
[1]
  Normalized Nile Red fluorescence, Mean: 0.8579
  Normalized Nile Red fluorescence, Median: 0.8801
All trials combined, normalized, Orlistat 6 μg/ml
  Percentage Change from Standard Diet: −14.21%
All trials combined, Holm-Šídák's multiple comparisons test, Orlistat 6 μg/ml
  Mean Diff. of normalized fluorescence, Standard E. coli Diet vs. Orlistat: 0.1421
Trial 1, Orlistat 6 μg/ml
  Mean Diff. of fluorescence, Standard E. coli Diet vs. Orlistat: 628190
[2]
  Nile Red fluorescence intensity, Mean: 10354899
  Nile Red fluorescence intensity, Median: 10198510
Trial 1, live OP50 20 mg/ml + Orlistat 6 μg/ml, mean fluorescence
  Percentage Change from Standard Diet: −5.72%
Trial 2, Orlistat 6 μg/ml
  Mean Diff. of fluorescence, Standard E. coli Diet vs. Orlistat: 1621884
[3]
  Nile Red fluorescence intensity, Mean: 9011934
  Nile Red fluorescence intensity, Median: 8938493
Trial 2, live OP50 20 mg/ml + Orlistat 6 μg/ml, mean fluorescence
  Percentage Change from Standard Diet: −15.25%
Trial 3, Orlistat 6 μg/ml
  Mean Diff. of fluorescence, Standard E. coli Diet vs. Orlistat: 9789069
[4]
  Nile Red fluorescence intensity, Mean: 28212711
  Nile Red fluorescence intensity, Median: 23127648
Trial 3, live OP50 20 mg/ml + Orlistat 6 μg/ml, mean fluorescence
  Percentage Change from Standard Diet: −25.76%

## Propionibacterium freudenreichii UF1
[5]
  Normalized Nile Red fluorescence, Mean: 0.5321
  Normalized Nile Red fluorescence, Median: 0.5247
[6]
  Normalized Nile Red fluorescence, Mean: 0.5417
  Normalized Nile Red fluorescence, Median: 0.5207
[7]
  Percentage Change from Orlistat: −37.98%
  Percentage Change from Standard Diet: −46.79%
[8]
  Percentage Change from Orlistat: −36.86%
  Percentage Change from Standard Diet: −45.83%
[9]
  Mean Diff. of normalized fluorescence, Orlistat vs. UF1 100 mg/ml: 0.3259
  Mean Diff. of normalized fluorescence, Orlistat vs. UF1 OD7: 0.3162
  Mean Diff. of normalized fluorescence, Standard E. coli Diet vs. UF1 100 mg/ml: 0.4679
  Mean Diff. of normalized fluorescence, Standard E. coli Diet vs. UF1 OD7: 0.4583
[10]
  reduced fat levels compared to the Orlistat control: approximately 38%
  reduced fat levels compared to the standard E. coli OP50 control diet: approximately 47%
Combined data, UF1 OD7 diet
  reduced fat levels compared to the Orlistat control: ~37%
  reduced fat levels compared to the standard E. coli OP50 control diet: ~46%
Trial 1
  Mean Diff. of fluorescence, Orlistat vs. UF1 100 mg/ml: 5160787
  Mean Diff. of fluorescence, Orlistat vs. UF1 OD7: 5293675
  Mean Diff. of fluorescence, Standard E. coli Diet vs. UF1 100 mg/ml: 5788977
  Mean Diff. of fluorescence, Standard E. coli Diet vs. UF1 OD7: 5921865
Trial 1, UF1 100 mg/ml diet
  less fat than the Orlistat control: approximately 50%
  Nile Red fluorescence intensity, Mean: 5194112
  Nile Red fluorescence intensity, Median: 5124444
  reduced fat levels compared to the standard E. coli OP50 control diet: approximately 53%
[11]
  Percentage Change from Orlistat: −49.84%
  Percentage Change from Standard Diet: −52.71%
Trial 1, UF1 OD7 diet
  less fat than the Orlistat control: ~51%
  Nile Red fluorescence intensity, Mean: 5061224
  Nile Red fluorescence intensity, Median: 5147920
  reduced fat levels compared to the standard E. coli OP50 control diet: ~54%
[12]
  Percentage Change from Orlistat: −51.12%
  Percentage Change from Standard Diet: −53.92%
Trial 2
  Mean Diff. of fluorescence, Orlistat vs. UF1 100 mg/ml: 1399524
  Mean Diff. of fluorescence, Orlistat vs. UF1 OD7: 2435073
  Mean Diff. of fluorescence, Standard E. coli Diet vs. UF1 100 mg/ml: 3021408
  Mean Diff. of fluorescence, Standard E. coli Diet vs. UF1 OD7: 4056957
Trial 2, UF1 100 mg/ml diet
  less fat than the Orlistat control: approximately 16%
  Nile Red fluorescence intensity, Mean: 7612410
  Nile Red fluorescence intensity, Median: 7441676
  reduced fat levels compared to the standard E. coli OP50 control diet: approximately 28%
[13]
  Percentage Change from Orlistat: −15.53%
  Percentage Change from Standard Diet: −28.41%
Trial 2, UF1 OD7 diet
  less fat than the Orlistat control: ~27%
  Nile Red fluorescence intensity, Mean: 6576861
  Nile Red fluorescence intensity, Median: 6691779
  reduced fat levels compared to the standard E. coli OP50 control diet: ~38%
[14]
  Percentage Change from Orlistat: −27.02%
  Percentage Change from Standard Diet: −38.15%
Trial 3
  Mean Diff. of fluorescence, Orlistat vs. UF1 100 mg/ml: 9045435
  Mean Diff. of fluorescence, Standard E. coli Diet vs. UF1 100 mg/ml: 18834504
Trial 3, UF1 100 mg/ml diet
  less fat than the Orlistat control: approximately 32%
  Nile Red fluorescence intensity, Mean: 19167276
  Nile Red fluorescence intensity, Median: 20425415
[15]
  Percentage Change from Orlistat: −32.06%
  Percentage Change from Standard Diet: −49.56%
Trial 3, UF1 diets (UF1 100 mg/ml)
  reduced fat levels compared to the standard E. coli OP50 control diet: approximately 50%
UF1 diets, conclusion in words
  reduction in fat level compared with Orlistat: stronger reduction in fat level than the anti-obesity drug Orlistat
non-obesogenic conditions, conclusion in words
  levels of fat in the intestines of C. elegans worms: reduced the levels of fat
